{"source": "patent US7338950B2", "about": "“Amide compounds as ion channel ligands and uses thereof” (Renovis, Inc., priority 2003, dated 2008)"}
{"system": "VR1 receptor (293 cells expressing capsaicin-insensitive VR1 receptor variants)", "assay": "High throughput screening of VR1 antagonists using a calcium imaging assay (Fura2, pH 5.1 stimulus);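 also: Fura2 ratiometric fluorescence read every 4 s over 3 min, response taken as peak ratio minus baseline before pre-treatment, compound pre-treatment preceding acid challenge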", "details": "1 uM compound; inhibition of calcium ion influx", "text": "A dual wavelength ratiometric dye, Fura2, was used as an indicator of relative levels of calcium ions in a 96 well format using a bench top scanning fluorometer with integrated fluidics and temperature control (Flex Station, Molecular Devices).\nA dual wavelength ratiometric dye, Fura2, was used as an indicator of relative levels of [Ca2+] in a 96 well format using a bench top scanning fluorometer with integrated fluidics and temperature control (Flex Station, Molecular Devices).\n293 cells were grown on PDL coated 96-well black-walled plates, in the presence of a DMEM medium containing 5% Penstrep, 5% Glutamax, 200 ug/mL Hygromycin, 5 μg/mL Blasticide and 10% heat inactivated FBS. Prior to assay, the cells were loaded with 5 μg/mL Fura2 in normal saline solution at 37° C. for 40 minutes. Cells were then washed with normal saline to remove the dye.\nThe assay consists of two stages; a pre-treatment phase followed by a treatment phase.\n50 μl of a compound solution was added to the cells (Pre-treatment). Immediately following, 50 μl of the test compound in a saline solution at pH 5.1 was added. […] Changes in wavelength measurements were made throughout the course of the experiment in 4 second intervals over a period of 3 minutes. Responses were measured as peak fluorescence ratio after test compound addition minus baseline fluorescence ratio prior to pre-treatment and were calculated using SoftMaxPro softwareData were expressed as percentage inhibition calculated using Excel as follows:"}
{"smiles": "COc1ccc(NC(=O)c2ccc(-c3ncccc3Cl)cc2F)cc1Cl", "note": "[Compound 1096]", "% Inhibition @ 1 uM": "++ (compound exhibited 25-50% inhibition of calcium ion influx induced by capsaicin stimulation)"}
{"smiles": "O=C(Nc1cccc(Br)c1)c1ccc(-c2ncccc2Cl)cc1F", "note": "[Compound 1100]", "% Inhibition @ 1 uM": "++++ (compound exhibited 75% or greater inhibition of calcium ion influx induced by capsaicin stimulation)"}
{"smiles": "N#Cc1cccc(NC(=O)c2ccc(-c3ncccc3Cl)cc2F)c1", "note": "[Compound 1101]", "% Inhibition @ 1 uM": "++++ (compound exhibited 75% or greater inhibition of calcium ion influx induced by capsaicin stimulation)"}
{"smiles": "CC(C)(C)c1ccc(NC(=O)c2ccc(-c3ncccc3Cl)cc2F)cc1", "note": "[Compound 1103]", "% Inhibition @ 1 uM": "+ (compound exhibited 0-25% inhibition of calcium ion influx induced by capsaicin stimulation)"}
{"smiles": "Cc1cccnc1NC(=O)c1ccc(-c2ncccc2Cl)cc1F", "note": "[Compound 1112]", "% Inhibition @ 1 uM": "+ (compound exhibited 0-25% inhibition of calcium ion influx induced by capsaicin stimulation)"}
{"smiles": "O=C(Nc1ccc(C(F)(F)F)cn1)c1ccc(-c2ncccc2Cl)cc1F", "note": "[Compound 1114]", "% Inhibition @ 1 uM": "+ (compound exhibited 0-25% inhibition of calcium ion influx induced by capsaicin stimulation)"}
{"smiles": "O=C(Nc1ncc(C(F)(F)F)cc1Cl)c1ccc(-c2ncccc2Cl)cc1F", "note": "[Compound 1115]", "% Inhibition @ 1 uM": "+ (compound exhibited 0-25% inhibition of calcium ion influx induced by capsaicin stimulation)"}
{"smiles": "O=C(Nc1cccnc1Cl)c1ccc(-c2ncccc2Cl)cc1F", "note": "[Compound 1118]", "% Inhibition @ 1 uM": "+ (compound exhibited 0-25% inhibition of calcium ion influx induced by capsaicin stimulation)"}
{"smiles": "COc1ccc(NC(=O)c2ccc(-c3ncccc3Cl)cc2F)cn1", "note": "[Compound 1120]", "% Inhibition @ 1 uM": "+ (compound exhibited 0-25% inhibition of calcium ion influx induced by capsaicin stimulation)"}
{"smiles": "Cc1cc(NC(=O)c2ccc(-c3ncccc3Cl)cc2F)nc(C)n1", "note": "[Compound 1123]", "% Inhibition @ 1 uM": "+++ (compound exhibited 50-75% inhibition of calcium ion influx induced by capsaicin stimulation)"}
{"smiles": "O=C(Nc1ccc2ncccc2c1)c1ccc(-c2ncccc2Cl)cc1F", "note": "[Compound 1124]", "% Inhibition @ 1 uM": "++ (compound exhibited 25-50% inhibition of calcium ion influx induced by capsaicin stimulation)"}
{"smiles": "O=C(Nc1ccc2ccccc2c1)c1ccc(-c2ncccc2Cl)cc1F", "note": "[Compound 1126]", "% Inhibition @ 1 uM": "++ (compound exhibited 25-50% inhibition of calcium ion influx induced by capsaicin stimulation)"}
{"smiles": "CC(C)(C)NC(=O)c1ccc(-c2ncccc2Cl)c(F)c1", "note": "[Compound 1127]", "% Inhibition @ 1 uM": "+ (compound exhibited 0-25% inhibition of calcium ion influx induced by capsaicin stimulation)"}
{"smiles": "O=C(Nc1ccc(F)cc1)c1ccc(-c2ncccc2Cl)c(F)c1", "note": "[Compound 1131]", "% Inhibition @ 1 uM": "+ (compound exhibited 0-25% inhibition of calcium ion influx induced by capsaicin stimulation)"}
{"smiles": "O=C(Nc1cccc(Cl)c1)c1ccc(-c2ncccc2Cl)c(F)c1", "note": "[Compound 1133]", "% Inhibition @ 1 uM": "+ (compound exhibited 0-25% inhibition of calcium ion influx induced by capsaicin stimulation)"}
{"smiles": "CCCc1ccccc1NC(=O)c1ccc(-c2ncccc2Cl)c(F)c1", "note": "[Compound 1135]", "% Inhibition @ 1 uM": "+ (compound exhibited 0-25% inhibition of calcium ion influx induced by capsaicin stimulation)"}
{"smiles": "COc1cccc(NC(=O)c2ccc(-c3ncccc3Cl)c(F)c2)c1", "note": "[Compound 1136]", "% Inhibition @ 1 uM": "+ (compound exhibited 0-25% inhibition of calcium ion influx induced by capsaicin stimulation)"}
{"smiles": "O=C(Nc1cccc(Cl)c1Cl)c1ccc(-c2ncccc2Cl)c(F)c1", "note": "[Compound 1139]", "% Inhibition @ 1 uM": "++++ (compound exhibited 75% or greater inhibition of calcium ion influx induced by capsaicin stimulation)"}
{"smiles": "N#Cc1cccc(NC(=O)c2ccc(-c3ncccc3Cl)c(F)c2)c1", "note": "[Compound 1141]", "% Inhibition @ 1 uM": "++++ (compound exhibited 75% or greater inhibition of calcium ion influx induced by capsaicin stimulation)"}
{"smiles": "CC(C)(C)c1ccc(NC(=O)c2ccc(-c3ncccc3Cl)c(F)c2)cc1", "note": "[Compound 1142]", "% Inhibition @ 1 uM": "++++ (compound exhibited 75% or greater inhibition of calcium ion influx induced by capsaicin stimulation)"}
{"smiles": "CCCCc1ccc(NC(=O)c2ccc(-c3ncccc3Cl)c(F)c2)cc1", "note": "[Compound 1144]", "% Inhibition @ 1 uM": "++++ (compound exhibited 75% or greater inhibition of calcium ion influx induced by capsaicin stimulation)"}
{"smiles": "Cc1ccc(NC(=O)c2ccc(-c3ncccc3Cl)c(F)c2)c(C)c1", "note": "[Compound 1145]", "% Inhibition @ 1 uM": "++++ (compound exhibited 75% or greater inhibition of calcium ion influx induced by capsaicin stimulation)"}
{"smiles": "O=C(Nc1ccc(F)cc1[N+](=O)[O-])c1ccc(-c2ncccc2Cl)c(F)c1", "note": "[Compound 1149]", "% Inhibition @ 1 uM": "++++ (compound exhibited 75% or greater inhibition of calcium ion influx induced by capsaicin stimulation)"}
{"smiles": "COc1ccc(NC(=O)c2ccc(-c3ncccc3Cl)c(F)c2)cc1Cl", "note": "[Compound 1151]", "% Inhibition @ 1 uM": "++++ (compound exhibited 75% or greater inhibition of calcium ion influx induced by capsaicin stimulation)"}
{"smiles": "O=C(Nc1ccc(C(F)(F)F)cc1)c1ccc(-c2ncccc2Cl)c(F)c1", "note": "[Compound 1152]", "% Inhibition @ 1 uM": "++ (compound exhibited 25-50% inhibition of calcium ion influx induced by capsaicin stimulation)"}
{"smiles": "Cc1cc(C)nc(NC(=O)c2ccc(-c3ncccc3Cl)c(F)c2)c1", "note": "[Compound 1156]", "% Inhibition @ 1 uM": "+ (compound exhibited 0-25% inhibition of calcium ion influx induced by capsaicin stimulation)"}
{"smiles": "O=C(Nc1ccncc1)c1ccc(-c2ncccc2Cl)c(F)c1", "note": "[Compound 1157]", "% Inhibition @ 1 uM": "++++ (compound exhibited 75% or greater inhibition of calcium ion influx induced by capsaicin stimulation)"}
{"smiles": "Cc1ccnc(NC(=O)c2ccc(-c3ncccc3Cl)c(F)c2)c1", "note": "[Compound 1162]", "% Inhibition @ 1 uM": "++++ (compound exhibited 75% or greater inhibition of calcium ion influx induced by capsaicin stimulation)"}
{"smiles": "O=C(Nc1ccc(C(F)(F)F)cn1)c1ccc(-c2ncccc2Cl)c(F)c1", "note": "[Compound 1166]", "% Inhibition @ 1 uM": "++ (compound exhibited 25-50% inhibition of calcium ion influx induced by capsaicin stimulation)"}
{"smiles": "O=C(Nc1ccc(Cl)nc1)c1ccc(-c2ncccc2Cl)c(F)c1", "note": "[Compound 1169]", "% Inhibition @ 1 uM": "+ (compound exhibited 0-25% inhibition of calcium ion influx induced by capsaicin stimulation)"}
{"smiles": "COc1ccc(NC(=O)c2ccc(-c3ncccc3Cl)c(F)c2)cn1", "note": "[Compound 1170]", "% Inhibition @ 1 uM": "++ (compound exhibited 25-50% inhibition of calcium ion influx induced by capsaicin stimulation)"}
{"smiles": "O=C(Nc1ccc2ncccc2c1)c1ccc(-c2ncccc2Cl)c(F)c1", "note": "[Compound 1173]", "% Inhibition @ 1 uM": "++++ (compound exhibited 75% or greater inhibition of calcium ion influx induced by capsaicin stimulation)"}
{"smiles": "O=C(Nc1cc[nH]n1)c1ccc(-c2ncccc2Cl)c(F)c1", "note": "[Compound 1175]", "% Inhibition @ 1 uM": "+ (compound exhibited 0-25% inhibition of calcium ion influx induced by capsaicin stimulation)"}
{"smiles": "O=C(Nc1ccc2ccccc2c1)c1ccc(-c2ncccc2Cl)c(F)c1", "note": "[Compound 1177]", "% Inhibition @ 1 uM": "++++ (compound exhibited 75% or greater inhibition of calcium ion influx induced by capsaicin stimulation)"}
{"smiles": "O=C(O)c1cccc(NC(=O)c2ccc(-c3ncccc3Cl)c(F)c2)c1", "note": "[Compound 1182]", "% Inhibition @ 1 uM": "+ (compound exhibited 0-25% inhibition of calcium ion influx induced by capsaicin stimulation)"}
{"smiles": "O=C(Nc1ccc(Cl)c(C(=O)O)c1)c1ccc(-c2ncccc2Cl)c(F)c1", "note": "[Compound 1183]", "% Inhibition @ 1 uM": "++++ (compound exhibited 75% or greater inhibition of calcium ion influx induced by capsaicin stimulation)"}
{"smiles": "COc1ccc(NC(=O)c2ccc(-c3ncccc3Cl)c(F)c2)cc1O", "note": "[Compound 1187]", "% Inhibition @ 1 uM": "++ (compound exhibited 25-50% inhibition of calcium ion influx induced by capsaicin stimulation)"}
{"smiles": "O=C(Nc1ccc2cn[nH]c2c1)c1ccc(-c2ncccc2Cl)c(F)c1", "note": "[Compound 1189]", "% Inhibition @ 1 uM": "+++ (compound exhibited 50-75% inhibition of calcium ion influx induced by capsaicin stimulation)"}
{"smiles": "CCCOc1ccc(NC(=O)c2ccc(-c3ncccc3Cl)c(F)c2)cc1", "note": "[Compound 1190]", "% Inhibition @ 1 uM": "++ (compound exhibited 25-50% inhibition of calcium ion influx induced by capsaicin stimulation)"}
{"smiles": "O=C(Nc1ccc(OC(F)(F)F)cc1)c1ccc(-c2ncccc2Cl)c(F)c1", "note": "[Compound 1192]", "% Inhibition @ 1 uM": "++ (compound exhibited 25-50% inhibition of calcium ion influx induced by capsaicin stimulation)"}
{"smiles": "O=C(Nc1cccc(OC(F)(F)F)c1)c1ccc(-c2ncccc2Cl)c(F)c1", "note": "[Compound 1193]", "% Inhibition @ 1 uM": "+ (compound exhibited 0-25% inhibition of calcium ion influx induced by capsaicin stimulation)"}
{"smiles": "CC(C)Oc1cccc(NC(=O)c2ccc(-c3ncccc3Cl)c(F)c2)c1", "note": "[Compound 1194]", "% Inhibition @ 1 uM": "+ (compound exhibited 0-25% inhibition of calcium ion influx induced by capsaicin stimulation)"}
{"smiles": "O=C(Nc1ccc(F)c(F)c1)c1ccc(-c2ncccc2Cl)c(F)c1", "note": "[Compound 1195]", "% Inhibition @ 1 uM": "+++ (compound exhibited 50-75% inhibition of calcium ion influx induced by capsaicin stimulation)"}
{"smiles": "O=C(Nc1ccc(N2CCOCC2)c(Cl)c1)c1ccc(-c2ncccc2Cl)c(F)c1", "note": "[Compound 1200]", "% Inhibition @ 1 uM": "++++ (compound exhibited 75% or greater inhibition of calcium ion influx induced by capsaicin stimulation)"}
{"smiles": "CN1CCCc2ccc(NC(=O)c3ccc(-c4ncccc4Cl)c(F)c3)cc21", "note": "[Compound 1203]", "% Inhibition @ 1 uM": "+ (compound exhibited 0-25% inhibition of calcium ion influx induced by capsaicin stimulation)"}
{"smiles": "COc1cc(C(=O)NC(C)(C)C)ccc1-c1ncccc1Cl", "note": "[Compound 1204]", "% Inhibition @ 1 uM": "+ (compound exhibited 0-25% inhibition of calcium ion influx induced by capsaicin stimulation)"}
{"smiles": "COc1cc(C(=O)Nc2ccccc2)ccc1-c1ncccc1Cl", "note": "[Compound 1206]", "% Inhibition @ 1 uM": "+ (compound exhibited 0-25% inhibition of calcium ion influx induced by capsaicin stimulation)"}
{"smiles": "COc1ccc(NC(=O)c2ccc(-c3ncccc3Cl)c(OC)c2)cc1", "note": "[Compound 1207]", "% Inhibition @ 1 uM": "+ (compound exhibited 0-25% inhibition of calcium ion influx induced by capsaicin stimulation)"}
{"smiles": "COc1cc(C(=O)Nc2ccccc2C#N)ccc1-c1ncccc1Cl", "note": "[Compound 1209]", "% Inhibition @ 1 uM": "+ (compound exhibited 0-25% inhibition of calcium ion influx induced by capsaicin stimulation)"}
{"smiles": "COc1cc(C(=O)Nc2cccc(Cl)c2)ccc1-c1ncccc1Cl", "note": "[Compound 1210]", "% Inhibition @ 1 uM": "+ (compound exhibited 0-25% inhibition of calcium ion influx induced by capsaicin stimulation)"}
